Here are results for one compound from patent US20170007617A1, “INTRAVENOUS FORMULATIONS OF A LATE SODIUM CURRENT INHIBITOR” (Gilead Sciences Drive, priority 2015, published 2017).

Format in all cases: physicochemical
Series [1] in a line: Precipitation upon dilution of pre-concentrate into saline. The settings on record: pre-concentrated formulation of 40% TWEEN 80 and 60% PEG 400.
Series [2] is described as follows: Solubility of Compound (I) in water and solubilizing vehicles.
A short description of series [3]: Chemical stability in solution.

SMILES strings stand for the structures. Converted amounts (≈) assume the structure as drawn. Read-outs that look alike come from different tables or passages of the source. A value given as a limit tells only on which side of the number the result lay.

In general, solubility refers to how much of the substance goes into solution per volume. For `O=C1c2cc(-c3ccc(OC(F)(F)F)cc3)ccc2OCCN1Cc1ncccn1` [Compound (I), 4-(pyrimidin-2-ylmethyl)-7-(4-(trifluoromethoxy)phenyl)-3,4-dihydrobenzo[f][1,4]oxazepin-5(2H)-one], in series [1], the “concentration needed to avoid precipitation upon dilution” value is not above 30000 µg/mL. The solubility in series [2] (1.6% TWEEN 80 and 2.4% PEG 400 in water, aqueous with cosolvent or surfactant or cyclodextrin, 1.6% TWEEN 80 and 2.4% PEG 400 in water, read-out: solubility) is 1400 µg/mL (≈ 3.37 mM); in series [2] (40% TWEEN 80 and 60% PEG 400, organic solvent or mixture, 40% TWEEN 80 and 60% PEG 400, read-out: solubility) it was more than 100000 µg/mL; in series [2] (about 0.4% TWEEN 80 and about 0.6% PEG 400 in water, aqueous with cosolvent or surfactant or cyclodextrin, about 0.4% TWEEN 80 and about 0.6% PEG 400 in water, read-out: solubility), 400 µg/mL (≈ 0.963 mM); in series [2] (oil-in-water emulsion with 20% oil, oil or lipid, oil-in-water emulsion with 20% oil, read-out: solubility) it was not above 5000 µg/mL; in series [2] (safflower oil, oil or lipid, safflower oil, read-out: solubility in triglycerides), approximately 25000 µg/mL (≈ 60.2 mM); in series [2] (water with 3.6% Captisol, aqueous with cosolvent or surfactant or cyclodextrin, water with 3.6% Captisol, read-out: solubility), 1100 µg/mL (≈ 2.65 mM). Further, the solubility in series [2] (water with 7% hydroxypropyl-β-cyclodextrin, aqueous with cosolvent or surfactant or cyclodextrin, water with 7% hydroxypropyl-β-cyclodextrin, read-out: solubility) came out at 3200 µg/mL (≈ 7.7 mM); in series [2] (water with 12% Captisol, aqueous with cosolvent or surfactant or cyclodextrin, water with 12% Captisol, read-out: solubility), 3900 µg/mL (≈ 9.39 mM); in series [2] (water with 14% hydroxypropyl-β-cyclodextrin, aqueous with cosolvent or surfactant or cyclodextrin, water with 14% hydroxypropyl-β-cyclodextrin, read-out: solubility) it was 7400 µg/mL (≈ 17.8 mM); in series [2] (water with 28% hydroxypropyl-β-cyclodextrin, aqueous with cosolvent or surfactant or cyclodextrin, water with 28% hydroxypropyl-β-cyclodextrin, read-out: solubility), 18000 µg/mL (≈ 43.3 mM); in series [2] (water with 36% Captisol, aqueous with cosolvent or surfactant or cyclodextrin, water with 36% Captisol, read-out: solubility), 13700 µg/mL (≈ 33 mM); in series [2] (water, read-out: water solubility), 10 µg/mL (≈ 0.0241 mM). Moreover, the “amount of PEG 400 required to achieve 0.3 mg/mL” value in series [2] (PEG 400/water co-solvent system, 0.3 mg/mL needed in infusion media for 15 mg dose) is listed as “more than 30%”. Moreover, the water solubility result in series [2] (water, listed as compound of formula (I)) is “about 0.01 mg/mL”. Also, the “chemical stability in solution” value in series [3] is reported as “chemically stable in solution”.
